Experimental data as given in patent US12421254B2, “KRAS modulators and uses thereof” (Quanta Therapeutics, Inc., priority 2023, dated 2025).
Where two headings read alike, the source gives them in different places.

Assays:
KRAS G12D/RAF1 = target: T1, KRAS G12D/RAF1 (Homo sapiens, UniProt P01116, G12D); experiment: Protein-protein interaction (PPI) HTRF assay KRAS G12D/RAF1; assay type: binding; details: Table 2
T1 construct: KRAS (1-169) proteins were expressed in BL21 (DE3)-CodonPlus E. coli; His6-MBP (N, cleaved yes)
Protocol: (§1) When RAS proteins are in the active GTP-bound conformation, they bind the effector protein RAF1 at the N-terminus Ras-binding domain (RBD, residues 52-131) (Tran, et al., 2021). Homogenous time resolved fluorescence (HTRF) was used to monitor the interaction between wt or mutant KRAS and RAF1 or wt NRAS and RAF1. Compounds were assayed in the presence of KRAS G12D/V and RAF1 versus wt KRAS to assess activity against mutant and w.t. KRAS. Similarly, compounds were then assayed in the presence of w.t. NRAS and RAF1 to assess RAS isoform selectivity. In all assay formats, His-tagged RAF1 protein was incubated with the HTRF donor, anti-6His Tb Cryptate gold (Cisbio 61DB10RDF), and biotinylated RAS proteins were incubated with the HTRF acceptor, streptavidin-d2 (CisBio 610SADLA). The intensity of the fluorescence signal emitted is proportional to binding between the two proteins. The donor solution was prepared by mixing 16 nM His-tagged RAF1 in protein dilution buffer with 1:100 anti-6His Tb cryptate in PPI-Terbium detection buffer. 16 nM biotinylated RAS protein was diluted into protein dilution buffer (50 mM Tris-HCl pH 7.5, 150 mM NaCl, 0.1 mM MgCl2, 1 mM TCEP, 0.005% Tween20) and mixed with 1:2000 Streptavidin-d2 diluted in PPI-Terbium detection buffer (CisBio 61DB10RDF). 50× compound in DMSO was mixed with 16 nM KRAS-acceptor solution and incubated for 30 minutes at room temperature. After compound pre-incubation with KRAS, the RAF1 donor solution was added to the KRAS-acceptor solution and incubated for 1 hour at room temperature. The fluorescence signal emitted was monitored at 665 nm and 615 nm using an Envision multimode plate reader. The HTRF ratio (665/615) was calculated and normalized to 0% inhibition in the absence of compound and 100% inhibition in the presence of untagged RAF1 protein. PPI KRAS G12D/RAF1, KRAS G12V/RAF1, w.t. KRAS/RAF1 and NRAS/RAF1 IC50 (uM) values of selected compounds are depicted in Table 3 and Table 4 with compounds having a value <0.1 uM as ++++; ≥0.1 uM to 1 uM as +++; ≥1 uM to 10 uM as ++; ≥10 uM to 100 uM as +; and ≥100 uM as NA.

KRAS G12V/RAF1 = target: T2, KRAS G12V/RAF1 (Homo sapiens, UniProt P01116, G12V); experiment: Protein-protein interaction (PPI) HTRF assay KRAS G12V/RAF1; assay type: binding; details: Table 3
T2 construct: KRAS (1-169) proteins were expressed in BL21 (DE3)-CodonPlus E. coli; His6-MBP (N, cleaved yes)
Protocol: as §1

phospho-ERK in AGS cells = experiment: pERK In Cell Western (ICW) assay (Method B), AGS; assay type: cell-based; details: Homo sapiens, Table 2, 3 hours
Protocol: pERK ICW is a high throughput screening assay to evaluate the cellular potency of mutant KRAS small molecule inhibitors. KRAS mutant cell lines AGS, GP2D (KRAS-G12D) as well as SW620 (KRAS-G12V) were purchased from ATCC and maintained respectively in RPMI/DMEM/RPMI medium supplemented with 10% fetal bovine serum.
Cells grown in exponential phase were trypsinized, resuspended in fresh media, and viable cells were counted using a cell counter with Trypan Blue (BioRad TC20). Cells were seeded into 384-well plate (Greiner 781091) at density of 5,000 cells/well for AGS and 10,000 cells/well for GP2D/SW620 and allowed to grow overnight in a 37° C. CO2 incubator. The next day, compounds were dispensed into wells with a ½ log, 9-point serial dilution using a Tecan D300e dispenser and incubated for 3 hours in a 37° C. CO2 incubator. Cells were then fixed with paraformaldehyde (Electron Microscopy Sciences, 15710, 4% final concentration) for 30 min, permeabilized with wash buffer (1×PBS+0.1% Triton X-100) for 30 min and blocked with Odyssey blocking buffer (Li—COR 927-70001) for 1 hour, all at room temperature (RT). Phospho-ERK antibody (CST 4370L) was diluted 1:500 in Odyssey T20 (PBS) antibody diluent (Li—COR 927-75001) and incubated with cells overnight at 4° C. The next day, plates were washed 5× with wash buffer, incubated with IRDye 800 CW, Goat anti-Rabbit secondary antibody (Li—COR 926-32211, 1:800) and DRAQ5 (CST 4084L, 1:5,000) diluted in Odyssey T20 (PBS) antibody diluent for 1 hour, washed 5×, and imaged on an Odyssey CLx imaging system.
For data analysis, signal intensities from 800 (phosphor-ERK) and 700 (DRAQ5) channels were extracted, and phospho-ERK signals were normalized to DRAQ5 signals for each well and percent of blank control values were computed. Data were then imported into Graphpad Prism to compute half-maximal inhibitory concentrations (IC50) using a 4-parameter variable slope model. Z-factor for each plate was computed from signals derived from wells treated with either DMSO or 5 μM of control compound. AGS pERK ICW (Method B) IC50 (uM) values of selected compounds are depicted in Table 2 with compounds having a value ≥0.001 uM to 0.01 uM as ++++; ≥0.01 uM to 0.1 uM as +++; ≥0.1 uM to 1 uM as ++; ≥1 uM to 10 uM as + and ≥10 uM as NA.

w.t. KRAS/RAF1 = target: T3, w.t. KRAS/RAF1 (Homo sapiens, UniProt P01116); experiment: Protein-protein interaction (PPI) HTRF assay w.t. KRAS/RAF1; assay type: binding; details: Table 3; wt KRAS/RAF1
T3 construct: KRAS (1-169) proteins were expressed in BL21 (DE3)-CodonPlus E. coli; His6-MBP (N, cleaved yes)
Protocol: as §1

[1] = target: GST-tagged KRAS-G12D (2-169) (Homo sapiens, UniProt P01116, G12D); experiment: Nucleotide exchange assay (NEA), SOS-mediated, HTRF, KRAS G12D; assay type: biochemical; details: IC50 extracted at 30 min, 20 nM SOScat
Procedure, shortened: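 Compound preincubated 1 h at RT with 0.25 nM GST-KRAS-G12D (2-169) and anti-GST Tb donor, then 20 nM SOS1cat (564-1049) and 150 nM GTP-DY-647P1 added; pH 7.3 HEPES buffer with MgCl2 and DTT. HTRF monitored at RT; % inhibition versus DMSO and no-SOS blank, 4-parameter IC50 taken at 30 min.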

[2] = target: GST-tagged KRAS-G12V (2-169) (Homo sapiens, UniProt P01116, G12V); experiment: Nucleotide exchange assay (NEA), SOS-mediated, HTRF, KRAS G12V; assay type: biochemical; details: Table 4; IC50 extracted at 90 min; 80 nM SOS
Procedure, shortened: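 GST-KRAS-G12V (2-169), 0.25 nM, pre-incubated 1 h at RT with compound, then SOS1cat (564-1049) 80 nM and GTP-DY-647P1 150 nM added in HEPES pH 7.3 buffer with MgCl2 and DTT. HTRF via anti-GST Tb cryptate read over 90 min; IC50 from 4-parameter fit at 90 min, blanked to no-SOS reactions.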

[3] = test system: phospho-ERK in GP2D (KRAS-G12D) cells; experiment: pERK In Cell Western (ICW) assay (Method B), GP2D; assay type: cell-based; details: GP2d, 3 h, Table 4
Procedure, shortened: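 3 h cpd, 37 °C, ½-log 9-pt dilution; AGS 5,000 cells/well, GP2D/SW620 10,000 cells/well, plated overnight. PFA fix, Triton perm, anti-pERK o/n 4 °C, IRDye 800 secondary + DRAQ5. pERK/DRAQ5 as % blank; IC50 4-PL.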

NRAS/RAF1 = target: T4, NRAS/RAF1 (Homo sapiens, UniProt P01111); experiment: Protein-protein interaction (PPI) HTRF assay w.t. NRAS/RAF1; assay type: binding; details: Table 3; wt NRAS/RAF1
T4 construct: (1-169); His6-SUMO (N, cleaved yes)
Protocol: as §1

[4] = Table 2, read-out: NEA-G12D (uM) IC50
[5] = Table 4, read-out: NEA G12D IC50

T1 sequence (P01116 with tags, fused parts or gaps isoform P01116-2 G12D): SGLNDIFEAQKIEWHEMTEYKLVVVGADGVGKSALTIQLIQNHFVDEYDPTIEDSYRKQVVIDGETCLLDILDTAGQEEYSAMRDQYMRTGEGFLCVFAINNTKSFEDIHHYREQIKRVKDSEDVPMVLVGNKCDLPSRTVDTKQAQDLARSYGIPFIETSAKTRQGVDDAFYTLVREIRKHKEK
T3 sequence (P01116 with tags, fused parts or gaps isoform P01116-2): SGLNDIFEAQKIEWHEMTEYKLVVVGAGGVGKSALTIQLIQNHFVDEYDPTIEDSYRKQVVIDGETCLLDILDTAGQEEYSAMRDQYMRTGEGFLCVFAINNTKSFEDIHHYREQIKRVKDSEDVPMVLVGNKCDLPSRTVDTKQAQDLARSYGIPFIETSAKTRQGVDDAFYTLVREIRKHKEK
T2 sequence (P01116 with tags, fused parts or gaps isoform P01116-2 G12V): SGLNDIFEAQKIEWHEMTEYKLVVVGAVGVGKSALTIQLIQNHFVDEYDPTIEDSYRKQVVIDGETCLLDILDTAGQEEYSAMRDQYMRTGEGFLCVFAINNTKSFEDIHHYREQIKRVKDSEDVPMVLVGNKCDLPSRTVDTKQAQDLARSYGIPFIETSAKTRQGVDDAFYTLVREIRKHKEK
Sequence of GST-tagged KRAS-G12D (2-169) (P01116 2-169 isoform P01116-2 G12D): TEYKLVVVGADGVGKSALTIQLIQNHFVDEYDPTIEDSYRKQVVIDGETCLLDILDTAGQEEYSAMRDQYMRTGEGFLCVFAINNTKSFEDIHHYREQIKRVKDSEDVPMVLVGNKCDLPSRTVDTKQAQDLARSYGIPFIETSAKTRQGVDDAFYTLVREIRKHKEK
Sequence of GST-tagged KRAS-G12V (2-169) (P01116 2-169 isoform P01116-2 G12V): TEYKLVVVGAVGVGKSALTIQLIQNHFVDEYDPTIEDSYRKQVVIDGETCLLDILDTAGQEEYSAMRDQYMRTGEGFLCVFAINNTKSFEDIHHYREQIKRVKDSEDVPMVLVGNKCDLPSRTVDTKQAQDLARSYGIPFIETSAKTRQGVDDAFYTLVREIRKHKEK
T4 sequence (P01111 with tags, fused parts or gaps): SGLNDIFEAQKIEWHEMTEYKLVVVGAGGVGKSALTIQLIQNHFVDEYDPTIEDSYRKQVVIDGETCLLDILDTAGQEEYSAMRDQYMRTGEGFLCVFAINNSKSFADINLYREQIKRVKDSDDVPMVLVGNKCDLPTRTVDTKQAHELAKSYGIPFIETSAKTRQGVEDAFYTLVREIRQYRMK

Structure (SMILES)	IC50 (KRAS G12D/RAF1)	IC50 (KRAS G12V/RAF1)	IC50 (phospho-ERK in AGS cells)	IC50 (w.t. KRAS/RAF1)	IC50 [1, 4]	IC50 [1, 5]	IC50 [2]	IC50 [3]	IC50 (NRAS/RAF1)
N#Cc1c(N)sc2c1C1(CC2)CN(c2nc(OC[C@@]34CCCN3C[C@H](F)C4)nc(N3CC[C@@H](O)[C@@H](O)C3)n2)C1 (racemic) [Compound 22, 2-amino-1′-[4-[rac-(3S,4R)-3,4-dihydroxy-1-piperidyl]-6-[[(2R,8S)-2-fluoro-1,2,3,5,6,7-hexahydropyrrolizin-8-yl]methoxy]-1,3,5-triazin-2-yl]spiro[5,6-dihydrocyclopenta[b]thiophene-4,3′-azetidine]-3-carbonitrile]	1 to 10 µM	10 to 100 µM	1 to 10 µM	1 to 10 µM	0.01 to 0.1 µM	0.01 to 0.1 µM	10 to 100 nM	1000 to 20000 nM	
CC1(C#N)CCCN(c2nc(OC[C@@]34CCCN3C[C@H](F)C4)nc(N3CC4(CCc5sc(N)c(C#N)c54)C3)n2)C1 (stereo partly drawn) [Compound 19, 2-amino-1′-[4-(3-cyano-3-methyl-1-piperidyl)-6-[[(2R,8S)-2-fluoro-1,2,3,5,6,7-hexahydropyrrolizin-8-yl]methoxy]-1,3,5-triazin-2-yl]spiro[5,6-dihydrocyclopenta[b]thiophene-4,3′-azetidine]-3-carbonitrile]	1 to 10 µM	1 to 10 µM	0.1 to 1 µM	1 to 10 µM	0.01 to 0.1 µM	0.01 to 0.1 µM	10 to 100 nM	100 to 1000 nM	
CN(C)C(=O)c1nn2c(c1Cl)CN(c1nc(OC[C@@]34CCCN3C[C@H](F)C4)nc(N3CC4(CCc5sc(N)c(C#N)c54)C3)n1)CCC2 [Compound 5, 5-[4-(2-amino-3-cyano-spiro[5,6-dihydrocyclopenta[b]thiophene-4,3′-azetidine]-1′-yl)-6-[[(2R,8S)-2-fluoro-1,2,3,5,6,7-hexahydropyrrolizin-8-yl]methoxy]-1,3,5-triazin-2-yl]-3-chloro-N,N-dimethyl-4,6,7,8-tetrahydropyrazolo[1,5-a][1,4]diazepine-2-carboxamide]	10 to 100 µM		0.1 to 1 µM		< 0.01 µM				> 100 µM
N#Cc1c(N)sc2c1C1(CC2)CN(c2nc(OCC3(C#N)CC3)nc(OC[C@@]34CCCN3C[C@H](F)C4)n2)C1 [Compound 16, 2-amino-1′-[4-[(1-cyanocyclopropyl)methoxy]-6-[[(2R,8S)-2-fluoro-1,2,3,5,6,7-hexahydropyrrolizin-8-yl]methoxy]-1,3,5-triazin-2-yl]spiro[5,6-dihydrocyclopenta[b]thiophene-4,3′-azetidine]-3-carbonitrile]	1 to 10 µM	1 to 10 µM	1 to 10 µM	10 to 100 µM	0.01 to 0.1 µM	0.01 to 0.1 µM	10 to 100 nM	1000 to 20000 nM	
N#Cc1c(N)sc(Cl)c1C1CCN(c2nc(OCC3(CN4CCOCC4)CC3)nc(N3C[C@H]4CC[C@@H](C3)N4)n2)C1 (stereo partly drawn) [Compound 4, 2-amino-5-chloro-4-[1-[4-[[1-(morpholinomethyl)cyclopropyl]methoxy]-6-[(1R,5S)-3,8-diazabicyclo[3.2.1]octan-3-yl]-1,3,5-triazin-2-yl]pyrrolidin-3-yl]thiophene-3-carbonitrile]	1 to 10 µM		1 to 10 µM		< 0.01 µM				> 100 µM
